Results published in patent US20160130278A1 (TAISHO PHARMACEUTICAL CO., LTD, priority 2013, published 2016).
pIC50: −log10 of the molar value.

biological target: T1, human type 1 glycine transporter (GlyT1) (Homo sapiens, UniProt P48067); experiment: Glycine uptake inhibition experiment ([3H]glycine uptake); assay type: cell-based; conditions: GlyT1
T1 construct: T98G cells (glioma cells) expressing human type 1 glycine transporter (GlyT1) were used
T1 sequence (P48067 1-706): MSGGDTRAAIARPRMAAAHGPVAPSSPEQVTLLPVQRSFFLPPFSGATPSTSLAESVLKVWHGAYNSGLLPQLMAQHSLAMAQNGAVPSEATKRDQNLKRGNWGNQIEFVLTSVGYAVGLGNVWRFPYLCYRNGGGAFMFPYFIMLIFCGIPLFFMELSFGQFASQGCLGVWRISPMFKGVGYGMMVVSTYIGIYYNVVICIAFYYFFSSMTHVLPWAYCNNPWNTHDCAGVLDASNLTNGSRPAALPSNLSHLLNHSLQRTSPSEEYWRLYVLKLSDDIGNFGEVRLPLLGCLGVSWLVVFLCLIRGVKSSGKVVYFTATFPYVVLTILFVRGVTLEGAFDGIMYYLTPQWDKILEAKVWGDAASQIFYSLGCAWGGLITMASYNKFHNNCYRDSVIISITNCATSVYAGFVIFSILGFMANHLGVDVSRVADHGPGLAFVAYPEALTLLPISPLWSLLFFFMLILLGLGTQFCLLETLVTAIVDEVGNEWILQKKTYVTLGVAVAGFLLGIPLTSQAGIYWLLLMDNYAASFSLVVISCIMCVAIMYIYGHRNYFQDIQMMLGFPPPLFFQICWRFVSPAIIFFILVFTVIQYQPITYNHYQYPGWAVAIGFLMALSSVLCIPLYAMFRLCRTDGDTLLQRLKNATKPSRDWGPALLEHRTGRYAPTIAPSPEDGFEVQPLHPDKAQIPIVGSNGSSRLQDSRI
Summary of the method: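 T98G glioma cells expressing human GlyT1 were pretreated 10 min with compound in HEPES buffer pH 7.4 (0.2% BSA), then incubated with compound plus 250 nM final [3H]glycine for 15 min at room temperature. Intracellular radioactivity was counted after NaOH lysis; 10 μM ALX5407 defined non-specific uptake. IC50 came from 10^−9–10^−5 M curves.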

| pIC50 | SMILES |
| --- | --- |
| 5.41 | O=C(NC(c1cccc(F)c1Cl)[C@]1(O)CC[C@@H](F)CC1)c1nc(Cl)ccc1Cl (single isomer, unassigned) [Compound 279, 3,6-dichloro-N-[(2-chloro-3-fluorophenyl)(cis-4-fluoro-1-hydroxycyclohexyl)methyl]pyridine-2-carboxamide] |
| 6.82 | O=C(NC(c1cccc(F)c1Cl)[C@]1(O)CC[C@@H](F)CC1)c1cc(C(F)(F)F)ncc1Cl (single isomer, unassigned) [Compound 280, 5-chloro-N-[(2-chloro-3-fluorophenyl)(cis-4-fluoro-1-hydroxycyclohexyl)methyl]-2-(trifluoromethyl)pyridine-4-carboxamide] |
| 5.68 | CS(=O)(=O)c1ccccc1C(=O)NC(c1cccc(F)c1Cl)[C@]1(O)CC[C@@H](F)CC1 (single isomer, unassigned) [Compound 281, N-[(2-chloro-3-fluorophenyl)(cis-4-fluoro-1-hydroxycyclohexyl)methyl]-2-(methylsulfonyl)benzamide] |
| 5.47 | O=C(NC(c1cccc(F)c1Cl)[C@]1(O)CC[C@@H](F)CC1)c1ccccc1OC(F)(F)F (single isomer, unassigned) [Compound 282, N-[(2-chloro-3-flurophenyl)(cis-4-fluoro-1-hydroxycyclohexyl)methyl]-2-(trifluoromethoxy)benzamide] |
| 5.96 | Cc1ccc(-n2nccn2)c(C(=O)NC(c2cccc(F)c2Cl)[C@]2(O)CC[C@@H](F)CC2)n1 (single isomer, unassigned) [Compound 283, N-[(2-chloro-3-fluorophenyl)(cis-4-fluoro-1-hydroxycyclohexyl)methyl]-6-methyl-3-(2H-1,2,3-triazol-2-yl)pyridine-2-carboxamide] |
| 5.72 | Cc1ccc(-c2ncccn2)c(C(=O)NC(c2cccc(F)c2Cl)[C@]2(O)CC[C@@H](F)CC2)n1 (single isomer, unassigned) [Compound 284, N-[(2-chloro-3-fluorophenyl)(cis-4-fluoro-1-hydroxycyclohexyl)methyl]-6-methyl-3-(pyrimidin-2-yl)pyridine-2-carboxamide] |
| 5.70 | O=C(NC(c1cccc(F)c1Cl)[C@]1(O)CC[C@@H](F)CC1)c1ccc(Cl)cc1-n1nccn1 (single isomer, unassigned) [Compound 285, 4-chloro-N-[(2-chloro-3-fluorophenyl)(cis-4-fluoro-1-hydroxycyclohexyl)methyl]-2-(2H-1,2,3-triazol-2-yl)benzamide] |
| 6.85 | O=C(NC(c1cc(Cl)ccn1)[C@]1(O)CC[C@@H](F)CC1)c1nccc(C(F)(F)F)c1Cl (single isomer, unassigned) [Compound 286, 3-chloro-N-[(4-chloropyridin-2-yl)(cis-4-fluoro-1-hydroxycyclohexyl)methyl]-4-(trifluoromethyl)pyridine-2-carboxamide] |
| 6.02 | Cc1cccc(C(=O)NC(c2cccc(F)c2Cl)[C@]2(O)CC[C@@H](F)CC2)c1Cl (single isomer, unassigned) [Compound 287, 2-chloro-N-[(2-chloro-3-fluorophenyl)(cis-4-fluoro-1-hydroxycyclohexyl)methyl]-3-methylbenzamide] |
| 6.00 | O=C(NC(c1cccc(F)c1Cl)[C@]1(O)CC[C@@H](F)CC1)c1cccc(F)c1Cl (single isomer, unassigned) [Compound 288, 2-chloro-N-[(2-chloro-3-fluorophenyl)(cis-4-fluoro-1-hydroxycyclohexyl)methyl]-3-fluorobenzamide] |
| 5.80 | COc1cccc(C(=O)NC(c2cccc(F)c2Cl)[C@]2(O)CC[C@@H](F)CC2)c1Cl (single isomer, unassigned) [Compound 289, 2-chloro-N-[(2-chloro-3-fluorophneyl)(cis-4-fluoro-1-hydroxycyclohexyl)methyl]-3-methoxybenzamide] |
| 6.05 | O=C(NC(c1cccc(F)c1Cl)[C@]1(O)CC[C@@H](F)CC1)c1nc(C(F)(F)F)ccc1Cl (single isomer, unassigned) [Compound 290, 3-chloro-N-[(2-chloro-3-fluorophenyl)(cis-4-fluoro-1-hydroxycyclohexyl)methyl]-6-(trifluoromethyl)pyridine-2-carboxamide] |
| 6.05 | O=C(NC(c1ccc(Cl)nc1)[C@]1(O)CC[C@@H](F)CC1)c1nccc(C(F)(F)F)c1Cl (single isomer, unassigned) [Compound 291, 3-chloro-N-[(6-chloropyridin-3-yl)(cis-4-fluoro-1-hydroxycyclohexyl)methyl]-4-(trifluoromethyl)pyridine-2-carboxamide] |
| 6.92 | O=C(NC(c1cccc(F)c1Cl)[C@]1(O)CC[C@@H](F)CC1)c1cc(C(F)(F)F)ccc1Cl (single isomer, unassigned) [Compound 292, 2-chloro-N-[(2-chloro-3-fluorophenyl)(cis-4-fluoro-1-hydroxycyclohexyl)methyl]-5-(trifluoromethyl)benzamide] |
| 6.35 | COc1ccc(Cl)c(C(=O)NC(c2cccc(F)c2Cl)[C@]2(O)CC[C@@H](F)CC2)c1 (single isomer, unassigned) [Compound 293, 2-chloro-N-[(2-chloro-3-fluorophenyl)(cis-4-fluoro-1-hydroxycyclohexyl)methyl]-5-methoxybenzamide] |
| 6.00 | Cc1ccc(Cl)c(C(=O)NC(c2cccc(F)c2Cl)[C@]2(O)CC[C@@H](F)CC2)c1 (single isomer, unassigned) [Compound 294, 2-chloro-N-[(2-chloro-3-fluorophenyl)(cis-4-fluoro-1-hydroxycyclohexyl)methyl]-5-methylbenzamide] |
| 5.68 | O=C(NC(c1cccc(F)c1Cl)[C@]1(O)CC[C@@H](F)CC1)c1cc(F)ccc1Cl (single isomer, unassigned) [Compound 295, 2-chloro-N-[(2-chloro-3-fluorophenyl)(cis-4-fluoro-1-hydroxycyclohexyl)methyl]-5-fluorobenzamide] |
| 5.46 | CS(=O)(=O)c1ccc(Cl)c(C(=O)NC(c2cccc(F)c2Cl)[C@]2(O)CC[C@@H](F)CC2)c1 (single isomer, unassigned) [Compound 296, 2-chloro-N-[(2-chloro-3-fluorophenyl)(cis-4-fluoro-1-hydroxycyclohexyl)methyl]-5-(methylsuflonyl)benzamide] |
| 5.82 | O=C(NC(c1cccc(F)c1Cl)[C@]1(O)CC[C@@H](F)CC1)c1cc(O)ccc1Cl (single isomer, unassigned) [Compound 297, 2-chloro-N-[(2-chloro-3-fluorophenyl)(cis-4-fluoro-1-hydroxycyclohexyl)methyl]-5-hydroxybenzamide] |
| 6.39 | O=C(NC(c1cccc(F)c1Cl)[C@]1(O)CC[C@@H](F)CC1)c1ccc(C(F)(F)F)cc1Cl (single isomer, unassigned) [Compound 298, 2-chloro-N-[(2-chloro-3-fluorophenyl)(cis-4-fluoro-1-hydroxycyclohexyl)methyl]-4-(trifluoromethyl)benzamide] |
| 6.21 | Cc1cccc(Cl)c1C(=O)NC(c1cccc(F)c1Cl)[C@]1(O)CC[C@@H](F)CC1 (single isomer, unassigned) [Compound 299, 2-chloro-N-[(2-chloro-3-fluorophenyl)(cis4-fluoro-1-hydroxycyclohexyl)methyl]-6-methylbenzamide] |
| 5.92 | COc1cccc(Cl)c1C(=O)NC(c1cccc(F)c1Cl)[C@]1(O)CC[C@@H](F)CC1 (single isomer, unassigned) [Compound 300, 2-chloro-N-[(2-chloro-3-fluorophenyl)(cis-4-fluoro-1-hydroxycyclohexyl)methyl]-6-methoxybenzamide] |
| 5.96 | O=C(NC(c1cccc(F)c1Cl)[C@]1(O)CC[C@@H](F)CC1)c1c(F)cccc1Cl (single isomer, unassigned) [Compound 301, 2-chloro-N-[(2-chloro-3-fluorophenyl)(cis-4-fluoro-1-hydroxycyclohexyl)methyl]-6-fluorobenzamide] |
| 5.26 | O=C(NC(c1cccc(F)c1Cl)[C@]1(O)CC[C@@H](F)CC1)c1nccnc1Cl (single isomer, unassigned) [Compound 302, 3-chloro-N-[(2-chloro-3-fluorophenyl)(cis-4-fluoro-1-hydroxycyclohexyl)methyl]pyrazine-2-carboxamide] |
| 5.40 | O=C(NC(c1ncccc1Cl)[C@]1(O)CC[C@@H](F)CC1)c1nccc(C(F)(F)F)c1Cl (single isomer, unassigned) [Compound 303, 3-chloro-N-[(3-chloropyridin-2-yl)(cis-4-fluoro-1-hydroxycyclohexyl)methyl]-4-(trifluoromethyl)pyridine-2-carboxmaide] |
| 6.54 | O=C(NC(c1cccc(F)c1Cl)[C@]1(O)CC[C@@H](F)CC1)c1ccc(C(F)(F)F)nc1Cl (single isomer, unassigned) [Compound 304, 2-chloro-N-[[2-chloro-3-fluorophenyl)(cis-4-fluoro-1-hydroxycyclohexyl)methyl]-6-(trifluoromethyl)pyridine-3-carboxamide] |
